Common to all, as to type: physicochemical
Series [1] can be described thus: Absorption, emission and fluorescence quantum yield in aqueous and alcoholic solvents. The source says: The absorption and emission maxima, and fluorescence quantum yields of these dyes in aqueous and alcoholic solvents are listed in Table 1. The long wavelength absorption and emission maxima and good fluorescence quantum yields in aqueous media make these dyes ideal candidates for application as fluorescence probes.

Series [2] can be described thus: Photophysical properties and picosecond time-resolved fluorescence lifetimes in the presence of cationic micelle CTAB. The note with it: for Abs λmax / Ems λmax / Φf: In the presence of CTAB. The source says:
(§1) Study of the stability and photophysical properties of a photosensitizer under physiological conditions is important during its evaluation for various in vitro and in vivo applications. Particularly, the influence of membrane mimics like cetyltrimethylammonium bromide and carrier systems like β-cyclodextrin will provide information on the sensitizer behaviour under physiological conditions. Moreover, such studies are also useful to clarify points such as whether a particular dye forms aggregates or not and whether it generates cytotoxic agents or not in such environments. These media are unique in their properties, since β-CD forms inclusion complexes with the guest molecules, while others form micellar structures thereby provide in them both the hydrophobic and hydrophilic environment.
(§2) FIGS. 3, 4, and 5 show the emission spectra of dye of the general formula 1, wherein, R^1=—(CH2—CH2—O)n—CH3, n=4 and R^2=—CH3 in the presence of cationic micelle CTAB, anionic micelle SDS and neutral micelle Triton X-100, respectively. As the concentration of micelles increases, the fluorescence intensity of the dye increases showing an effective interaction between the micelles and the dye. To have a better understanding of the effect of micellar media we have analyzed the picosecond time-resolved fluorescence lifetimes of dyes of the general formula 1. […] Tables 2, 3 and 4
(§3) lists the absorption and emission maxima, fluorescence quantum yield and lifetimes of dyes of the general formula 1 wherein, R^1=—(CH2—CH2—O)n—CH3, n=4 and R^2=—CH3, general formula 2, wherein R^1, R^2=—(CH2—CH2—O)n—CH3, n=4 and general formula 3, wherein R^1=—(CH2)n—CO2X, n=3, X=H, and R^2=—CH3, in the absence and presence of cationic micelle CTAB, anionic micelle SDS and neutral micelle Triton X-100.

Series [3] can be described thus: Photophysical properties and fluorescence lifetimes in the presence of anionic micelle SDS.
Text: as §1, §2, §3

A short description of series [4]: Photophysical properties and fluorescence lifetimes in the presence of neutral micelle Triton X-100.
Text: as §1, §2, §3

Series [5] in a line: Photophysical properties and fluorescence lifetimes in the presence of β-CD. The note with it: for Abs λmax / Ems λmax / Φf: In the presence of β-CD.
Text: as §1
Table 5 summarises the absorption and emission maxima, fluorescence quantum yields and lifetimes of squaraine dyes of the general formula 1 in the presence of β-CD.

Series [6] in a line: Summary of photophysical properties in the presence of membrane mimics and drug carriers. The note with it: presence of membrane mimics and drug carriers versus aqueous media. The source says:
The main advantages of these systems include: • 1. Squaraines dyes represented by formulae 1, 2 and 3 are novel and pure single substances. • 2. Their synthetic methodology is very economical. • 3. […] They can be used for photodynamic applications such as sterilization of fluids etc. • 7. The squaraine-based dyes can be used as near infrared fluorescent probes for protein labeling. • 8. The squaraine dyes of the general formula 1 can be used as near infrared fluorescent labels in immunoassays. • 9. They can be used for the detection of biologically important metal ions under physiological conditions. • 10. These novel dyes can be used as near-infrared fluorescence sensors in biological, biochemical and industrial applications.

Series [7] is described as follows: Photophysical properties and fluorescence lifetimes in the presence of β-CD. The note with it: in the absence of β-CD.
The mark [8] stands for this setting: In the presence of Triton X-100.

Consider `COCCOCCOCCOCCN(C)c1ccc(C2=C([O-])C(=C3C=CC(=[N+](C)CCOCCOCCOCCOC)C=C3)C2=O)cc1` [Formula 1], for which the “Φf (fluorescence quantum yield)” value in series [1] (10% v/v Ethanol/water) was determined as 0.018; in series [1] (Ethanol) it was 0.19; in series [1] (Water), 0.013. Also, the results for the “λmax, nm abs” value in series [1] (10% v/v Ethanol/water), in series [1] (Ethanol) and in series [1] (Water) were 645 nm, 637 nm and 644 nm, respectively. Also, the results for the “λmax, nm ems” value in series [1] (10% v/v Ethanol/water), in series [1] (Ethanol) and in series [1] (Water) were 674 nm, 660 nm and 671 nm, respectively. Also, the “fluorescence intensity as the concentration of micelles increases” value was “increases” in series [2] (CTAB 0 to 129 mM, excitation 600 nm); “increases” in series [3] (SDS 0 to 21 mM, excitation 600 nm); “increases” in series [4] (Triton X-100 0 to 118 mM, excitation 600 nm). For the same compound, the “Abs λmax” value is 642 nm in series [2], 640 nm in series [3] (In the presence of SDS), 645 nm in series [4] (setting [8]) and 644 nm in series [5]. Further, the “Ems λmax” value in series [2] is 663 nm; in series [3] (In the presence of SDS) it was 663 nm; in series [4] (setting [8]), 669 nm; in series [5] it was 663 nm. The Φf in series [2] is 0.12; in series [3] (In the presence of SDS) it was 0.15; in series [4] (setting [8]) it was 0.12; in series [5] it was 0.10. Moreover, the Lifetimes in series [3] (In the presence of SDS) is reported as 590 ps. The “form of fluorescence decay” value in series [5] (in the presence of β-CD) was “Biexponential decay”; in series [7], “mono exponential decay”. Also, the “increase of emission quantum yield” value in series [6] is around 10 fold.

Take `COCCOCCOCCOCCN(CCOCCOCCOCCOC)c1ccc(C2=C([O-])C(=C3C=CC(=[N+](CCOCCOCCOCCOC)CCOCCOCCOCCOC)C=C3)C2=O)cc1` [Formula 2]: in series [1] (10% v/v Ethanol/water), the “Φf (fluorescence quantum yield)” value is 0.026; the “λmax, nm abs” value is reported as 646 nm; the “λmax, nm ems” value was found to be 675 nm. Further, in series [1] (Ethanol), the “Φf (fluorescence quantum yield)” value was 0.21; the “λmax, nm abs” value is listed as 638 nm; the “λmax, nm ems” value is recorded as 662 nm. Also, in series [1] (Water), the “Φf (fluorescence quantum yield)” value is 0.021; the “λmax, nm abs” value is 646 nm; the “λmax, nm ems” value was 676 nm. Besides, in series [2], the “Abs λmax” value is 644 nm, the “Ems λmax” value was 667 nm and the Φf is reported as 0.096. In addition, in series [3] (In the presence of SDS), the “Abs λmax” value was determined as 643 nm, the “Ems λmax” value is reported as 668 nm and the Φf was 0.16. In series [4] (setting [8]), the “Abs λmax” value came out at 646 nm, the “Ems λmax” value worked out at 671 nm, the “Relative contribution of lifetime component” value is given as “(7%)” and the Φf is recorded as 0.14. Further, in series [5], the “Abs λmax” value was determined as 645 nm, the “Ems λmax” value was 668 nm and the Φf was determined as 0.07. Also, in series [6], the “increase of emission quantum yield” value is listed as around 10 fold.

For the compound `CN(CCCC(=O)O)c1ccc(C2=C([O-])C(=C3C=CC(=[N+](C)CCCC(=O)O)C=C3)C2=O)cc1` [Formula 3], the “Φf (fluorescence quantum yield)” value in series [1] (10% v/v Ethanol/water) came to 0.015; in series [1] (Ethanol), 0.18; in series [1] (Water), 0.007. Further, the results for the “λmax, nm abs” value in series [1] (10% v/v Ethanol/water), in series [1] (Ethanol) and in series [1] (Water) were 647 nm, 636 nm and 645 nm, respectively. Further, the “λmax, nm ems” value in series [1] (10% v/v Ethanol/water) is 673 nm; in series [1] (Ethanol), 662 nm; in series [1] (Water), 673 nm. In addition, the figures for the “Abs λmax” value in series [2], in series [4] (setting [8]) and in series [5] were 644 nm, 649 nm and 649 nm, respectively. Moreover, the “Ems λmax” value in series [2] is on record as 667 nm; in series [4] (setting [8]) it was 672 nm; in series [5] it was 666 nm. Besides, the Φf in series [2] amounted to 0.14; in series [4] (setting [8]), 0.12; in series [5], 0.19. Moreover, in series [6], the “increase of emission quantum yield” value was around 10 fold.

Values taken from patent US20090068113A1, “AMPHIPHILIC SQUARAINE DYES, PROCESS FOR PREPARATION THEREOF AND USE THEREOF” (COUNCIL OF SCIENTIFIC AND INDUSTRIAL RESEARCH, priority 2005, published 2009).
